This note sets out measurements from patent US20260315552A1, “COMBINATION OF VITAMINS, 2'-FUCOSYLLACTOSE AND A PROBIOTIC FOR ENHANCING BONE GROWTH AND/OR BONE STRENGTH” (SOCIÉTÉ DES PRODUITS NESTLÉ S.A., priority 2023, published 2026).

Assay [1] deals with osteocalcin (Ocn) in pre-osteoblastic cell line MC3T3-E1 subclone 4. The experiment in a line: Osteocalcin mRNA levels (qPCR). The following applies: 21 days of differentiation, without ascorbic acid; MK-7 3 μM, VitA 100 nM, VitD 1 nM; FIG. 1B. Format: cell-based. As to the method:
(§1) (A) ALP activity after 7 days of differentiation (without ascorbic acid). (B) Osteocalcin mRNA levels after 21 days of differentiation (without ascorbic acid). (C) Osteocalcin mRNA levels after 28 days of differentiation (with ascorbic acid). Pos=positive control; Neg=negative control; MK-7=supplemented with 3 μM menaquinone-7; VitD=supplemented with 1 nM 1α,25-Dihydroxyvitamin D3; VitA=supplemented with 100 nM all-trans-retinoic acid.
The pre-osteoblastic cell line MC3T3-E1 subclone 4 (CRL-2593) was purchased from ATCC (Manassas; Virginia, USA). Cells were maintained in growth medium (GM) composed of ascorbic acid-free αMEM (ThermoFisher Scientific), supplemented with 10% fetal calf serum (FCS, ThermoFisher Scientific) and 1% penicillin/streptomycin. All culture media were refreshed every 2-3 days. Cells were passaged with trypsin/EDTA solution at less than 80% confluence. To induce differentiation into osteoblasts, cells were seeded at 5×10^4 cells/cm^2 and grown to confluency in GM for 24 h. Then, the medium was switched to differentiation medium (DM) composed of GM supplemented with 10 mM β-glycerophosphate and treatment solutions of interest. Ascorbic acid 50 μg/ml was also added to the DM depending on the experiment.
MC3T3-E1 subclone 4 cells were differentiated for 21 days (in DM without ascorbic acid except for the positive control) or 28 days (in DM containing ascorbic acid). Cells were then collected for gene expression analysis. RNA was extracted using the RNeasy plus mini kit (Qiagen; Hilden, Germany) with the QIAcube (Qiagen,) according to the manufacturer's instructions. Briefly, cells were lysed in RLT buffer and spun in a QIAshredder column (Qiagen) before being processed by the QIAcube. RNA concentrations were measured using the DropSense96 (TRINEAN, Gentbrugge, Belgium).
cDNAs were synthetized using High-Capacity cDNA Reverse Transcription Kit (AppliedBiosystems; Waltham, Massachusetts, USA) according to the manufacturer's instructions. […] The relative gene expression was evaluated via the 2^-ΔCt method.

The subject of assay [2] is pre-osteoblastic cell line MC3T3-E1 subclone 4. The assay can be described thus: Osteoblast alkaline phosphatase (ALP) activity. It counts as cell-based. The following applies: 7 days of differentiation, without ascorbic acid; MK-7 3 μM, VitA 100 nM all-trans-retinoic acid, VitD 1 nM 1α,25-Dihydroxyvitamin D3; FIG. 1A. As to the method:
as §1
ALP activity after 7 days of differentiation (without ascorbic acid). […]
The effect of SCFAs was further investigated. Three mixes of 75% acetate, 20% propionate, 5% butyrate were evaluated to mimic normal physiological conditions (20 μM SCFAs), physiological conditions following prebiotic supplementation (50 μM SCFAs), and physiological conditions following synbiotic supplementation (60 μM SCFAs). […]
After 7 days of differentiation, cells were then collected for alkaline phosphatase (ALP) activity measurement as described previously with minor modifications. […] Enzymatic reaction was monitored at 405 nm after 4-Nitrophenyl phosphate disodium salt hexahydrate addition. Michaelis-Menten kinetics were evaluated at 30° C. for 30 min. […] The activity value was normalized by protein content measured via the Pierce BCA Protein Assay Kit (ThermoFisher Scientific) according to the manufacturer's instructions.

For `CC1=C(/C=C/C(C)=C/C=C/C(C)=C/C(=O)O)C(C)(C)CCC1` [vitamin A, all-trans-retinoic acid], the “effect on osteocalcin expression” value in assay [1] is “no significant effect”.

As to `C=C1/C(=C\C=C2/CCC[C@]3(C)[C@@H]([C@H](C)CCCC(C)(C)O)CC[C@@H]23)C[C@@H](O)C[C@@H]1O` [vitamin D, 1α,25-Dihydroxyvitamin D3], the “effect on osteocalcin expression” value in assay [1] was “no significant effect”.

`CC(C)=CCC/C(C)=C/CC/C(C)=C/CC/C(C)=C/CC/C(C)=C/CC/C(C)=C/CC/C(C)=C/CC1=C(C)C(=O)c2ccccc2C1=O` [vitamin K2, menaquinone-7]: the “effect on ALP activity (marker of osteoblast differentiation)” value in assay [2] was “no significant effect”. Further, the “effect on osteocalcin expression” value in assay [1] is on record as “significant effect”.
